Results: patent publication US10231954B2, “Neurodegenerative therapies” (LYTIX BIOPHARMA AS, priority 2014, dated 2019)
Like-named read-outs stand apart in the source and are kept apart here.

Columns and labels:
Assay type in all cases: biochemical
[1] = target: PAK2 (Homo sapiens, UniProt Q13177); assay: Kinase profiling PAK2; conditions: for remaining activity at 100 µM: read-out: residual kinase activity, PAK2
Source text: (§1) Any value less that 25 is considered to be highly significant inhibition.

[2] = target: T1, IKKb (Homo sapiens, UniProt O14920); assay: Kinase profiling IKKb; conditions: for remaining activity at 100 µM: read-out: residual kinase activity, IKKb
T1 sequence (O14920 1-756): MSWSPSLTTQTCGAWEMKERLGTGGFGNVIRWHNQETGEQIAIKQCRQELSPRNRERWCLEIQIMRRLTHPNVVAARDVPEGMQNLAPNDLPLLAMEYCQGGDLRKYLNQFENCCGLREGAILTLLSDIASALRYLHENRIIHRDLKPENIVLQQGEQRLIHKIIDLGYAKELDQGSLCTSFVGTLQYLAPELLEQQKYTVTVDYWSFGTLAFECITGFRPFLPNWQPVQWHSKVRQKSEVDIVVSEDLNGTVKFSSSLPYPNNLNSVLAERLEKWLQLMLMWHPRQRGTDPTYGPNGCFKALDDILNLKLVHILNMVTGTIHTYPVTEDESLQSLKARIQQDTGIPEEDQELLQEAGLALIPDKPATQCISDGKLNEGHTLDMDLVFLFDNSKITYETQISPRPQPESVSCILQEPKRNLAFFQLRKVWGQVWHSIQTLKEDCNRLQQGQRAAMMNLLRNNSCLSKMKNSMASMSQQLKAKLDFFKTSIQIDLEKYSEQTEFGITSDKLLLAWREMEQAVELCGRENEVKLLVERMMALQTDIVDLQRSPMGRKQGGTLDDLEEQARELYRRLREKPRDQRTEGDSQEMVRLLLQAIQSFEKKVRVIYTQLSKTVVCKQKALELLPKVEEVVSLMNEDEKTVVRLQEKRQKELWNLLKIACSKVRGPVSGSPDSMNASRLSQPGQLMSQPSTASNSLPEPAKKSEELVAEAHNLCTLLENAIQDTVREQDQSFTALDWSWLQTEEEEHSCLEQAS
Source text: as §1

[3] = target: MELK (Homo sapiens, UniProt Q14680); assay: Kinase profiling MELK; conditions: for remaining activity at 100 µM: read-out: residual kinase activity, MELK
Source text: as §1

[4] = target: MLK1 (Homo sapiens, UniProt P80192); assay: Kinase profiling MLK1; conditions: for remaining activity at 100 µM: read-out: residual kinase activity, MLK1
Source text: as §1

[5] = target: MNK1 (Homo sapiens, UniProt Q9BUB5); assay: Kinase profiling MNK1; conditions: for remaining activity at 100 µM: read-out: residual kinase activity, MNK1
Source text: as §1

[6] = target: EPH-A4 (Homo sapiens, UniProt P54764); assay: Kinase profiling EPH-A4; conditions: for remaining activity at 100 µM: read-out: residual kinase activity, EPH-A4
Source text: as §1

[7] = target: T2, MAP4K3 (Homo sapiens, UniProt Q8IVH8); assay: Kinase profiling MAP4K3; conditions: for remaining activity at 100 µM: read-out: residual kinase activity, MAP4K3
T2 sequence (Q8IVH8 1-894): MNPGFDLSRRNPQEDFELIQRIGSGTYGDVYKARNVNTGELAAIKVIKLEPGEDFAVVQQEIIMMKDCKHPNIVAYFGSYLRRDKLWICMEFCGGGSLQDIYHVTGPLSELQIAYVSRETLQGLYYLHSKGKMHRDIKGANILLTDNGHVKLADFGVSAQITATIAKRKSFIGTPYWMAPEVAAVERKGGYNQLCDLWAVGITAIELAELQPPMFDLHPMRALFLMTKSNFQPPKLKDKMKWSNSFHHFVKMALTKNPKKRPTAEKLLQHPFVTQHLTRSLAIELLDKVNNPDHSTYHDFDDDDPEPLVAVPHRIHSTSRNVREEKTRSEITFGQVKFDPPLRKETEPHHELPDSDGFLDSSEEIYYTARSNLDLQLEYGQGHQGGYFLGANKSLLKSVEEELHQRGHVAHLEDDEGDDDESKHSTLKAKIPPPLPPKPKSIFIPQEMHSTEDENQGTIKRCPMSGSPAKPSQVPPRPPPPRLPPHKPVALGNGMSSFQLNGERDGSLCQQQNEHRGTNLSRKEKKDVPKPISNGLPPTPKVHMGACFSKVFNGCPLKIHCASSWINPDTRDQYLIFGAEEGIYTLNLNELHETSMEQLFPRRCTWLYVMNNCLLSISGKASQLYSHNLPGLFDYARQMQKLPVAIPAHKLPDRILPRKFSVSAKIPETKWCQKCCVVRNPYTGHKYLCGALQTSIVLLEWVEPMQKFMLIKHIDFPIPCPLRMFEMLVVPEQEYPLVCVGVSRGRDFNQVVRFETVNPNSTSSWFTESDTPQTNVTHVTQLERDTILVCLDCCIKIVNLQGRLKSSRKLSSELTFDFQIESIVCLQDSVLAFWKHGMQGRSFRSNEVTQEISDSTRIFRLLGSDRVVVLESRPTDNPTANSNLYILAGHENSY
Source text: as §1

[8] = target: T3, ULK1 (Homo sapiens, UniProt O75385); assay: Kinase profiling ULK1; conditions: for remaining activity at 100 µM: read-out: residual kinase activity, ULK1
T3 sequence (O75385 1-1050): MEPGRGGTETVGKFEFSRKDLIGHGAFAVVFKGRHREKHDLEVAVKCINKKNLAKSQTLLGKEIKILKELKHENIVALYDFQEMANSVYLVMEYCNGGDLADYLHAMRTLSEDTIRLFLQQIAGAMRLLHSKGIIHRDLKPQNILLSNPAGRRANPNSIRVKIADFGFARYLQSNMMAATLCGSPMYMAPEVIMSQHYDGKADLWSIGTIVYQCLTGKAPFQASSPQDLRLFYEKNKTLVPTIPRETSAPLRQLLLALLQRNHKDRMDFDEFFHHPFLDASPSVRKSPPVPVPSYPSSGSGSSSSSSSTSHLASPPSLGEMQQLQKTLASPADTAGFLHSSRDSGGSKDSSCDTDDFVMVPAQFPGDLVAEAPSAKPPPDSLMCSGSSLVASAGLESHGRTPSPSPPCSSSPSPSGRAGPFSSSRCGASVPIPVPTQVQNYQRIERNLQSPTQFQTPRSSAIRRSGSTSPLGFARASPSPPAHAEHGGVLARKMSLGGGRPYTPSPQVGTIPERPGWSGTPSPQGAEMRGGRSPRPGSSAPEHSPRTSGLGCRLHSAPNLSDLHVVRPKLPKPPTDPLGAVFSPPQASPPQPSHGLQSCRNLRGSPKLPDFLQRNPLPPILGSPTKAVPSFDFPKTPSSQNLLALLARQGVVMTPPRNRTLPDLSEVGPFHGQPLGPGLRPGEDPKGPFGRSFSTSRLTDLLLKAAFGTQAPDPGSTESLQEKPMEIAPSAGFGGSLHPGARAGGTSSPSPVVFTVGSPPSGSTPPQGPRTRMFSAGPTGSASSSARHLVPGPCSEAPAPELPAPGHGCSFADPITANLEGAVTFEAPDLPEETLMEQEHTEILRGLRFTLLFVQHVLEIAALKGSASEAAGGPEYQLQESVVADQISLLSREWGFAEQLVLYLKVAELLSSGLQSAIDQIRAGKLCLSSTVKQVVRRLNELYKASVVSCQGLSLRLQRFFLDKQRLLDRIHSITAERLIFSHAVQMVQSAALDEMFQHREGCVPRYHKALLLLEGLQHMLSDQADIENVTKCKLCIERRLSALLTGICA
Source text: as §1

[9] = 100 micromolar inhibitor concentration, 100 is no change
[10] = 100 micromolar inhibitor, 100 = no change

Sequence of EPH-A4 (P54764 20-986, species assumed): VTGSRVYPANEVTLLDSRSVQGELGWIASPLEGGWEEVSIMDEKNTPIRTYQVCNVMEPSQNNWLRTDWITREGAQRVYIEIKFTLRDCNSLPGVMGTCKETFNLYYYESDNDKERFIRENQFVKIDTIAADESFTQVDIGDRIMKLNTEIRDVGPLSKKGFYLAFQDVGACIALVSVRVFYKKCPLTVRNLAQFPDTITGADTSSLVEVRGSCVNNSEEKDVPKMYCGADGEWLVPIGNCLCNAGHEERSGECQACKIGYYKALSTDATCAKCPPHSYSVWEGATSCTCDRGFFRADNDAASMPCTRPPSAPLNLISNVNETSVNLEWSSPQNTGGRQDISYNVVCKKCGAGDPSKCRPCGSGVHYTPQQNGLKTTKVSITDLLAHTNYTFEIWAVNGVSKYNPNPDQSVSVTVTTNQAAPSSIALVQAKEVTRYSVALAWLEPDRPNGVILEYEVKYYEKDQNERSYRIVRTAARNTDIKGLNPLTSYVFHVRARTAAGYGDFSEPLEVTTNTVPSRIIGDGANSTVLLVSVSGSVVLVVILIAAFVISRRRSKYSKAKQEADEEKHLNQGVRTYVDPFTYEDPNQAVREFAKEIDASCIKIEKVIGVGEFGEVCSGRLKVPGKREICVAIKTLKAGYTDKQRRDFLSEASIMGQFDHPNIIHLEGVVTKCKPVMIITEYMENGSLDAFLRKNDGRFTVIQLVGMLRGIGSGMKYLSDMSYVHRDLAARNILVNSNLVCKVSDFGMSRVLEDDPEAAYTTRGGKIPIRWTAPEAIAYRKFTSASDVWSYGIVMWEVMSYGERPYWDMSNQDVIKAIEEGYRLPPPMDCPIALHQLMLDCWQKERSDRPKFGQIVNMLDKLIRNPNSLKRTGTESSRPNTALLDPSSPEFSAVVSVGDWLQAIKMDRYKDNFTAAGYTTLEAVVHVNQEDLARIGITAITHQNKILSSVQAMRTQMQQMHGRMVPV
Sequence of MELK (Q14680 whole entry, species assumed): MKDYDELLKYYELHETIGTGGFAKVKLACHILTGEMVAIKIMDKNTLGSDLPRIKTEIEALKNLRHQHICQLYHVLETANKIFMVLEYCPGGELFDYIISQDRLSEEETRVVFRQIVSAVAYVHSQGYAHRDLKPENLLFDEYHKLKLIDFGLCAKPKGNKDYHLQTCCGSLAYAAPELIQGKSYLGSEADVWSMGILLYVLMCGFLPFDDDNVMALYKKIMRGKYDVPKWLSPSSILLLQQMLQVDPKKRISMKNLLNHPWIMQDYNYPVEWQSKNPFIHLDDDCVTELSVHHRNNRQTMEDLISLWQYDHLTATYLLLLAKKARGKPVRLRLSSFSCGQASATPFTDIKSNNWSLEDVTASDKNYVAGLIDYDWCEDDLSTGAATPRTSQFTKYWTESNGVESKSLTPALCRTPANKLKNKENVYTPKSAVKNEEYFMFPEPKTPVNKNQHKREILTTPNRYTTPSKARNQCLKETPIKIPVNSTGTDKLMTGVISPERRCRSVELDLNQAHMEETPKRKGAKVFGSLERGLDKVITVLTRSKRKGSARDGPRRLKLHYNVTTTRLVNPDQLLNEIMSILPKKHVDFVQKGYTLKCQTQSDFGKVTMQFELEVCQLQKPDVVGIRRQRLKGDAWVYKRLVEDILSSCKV
Sequence of MLK1 (P80192 whole entry, species assumed): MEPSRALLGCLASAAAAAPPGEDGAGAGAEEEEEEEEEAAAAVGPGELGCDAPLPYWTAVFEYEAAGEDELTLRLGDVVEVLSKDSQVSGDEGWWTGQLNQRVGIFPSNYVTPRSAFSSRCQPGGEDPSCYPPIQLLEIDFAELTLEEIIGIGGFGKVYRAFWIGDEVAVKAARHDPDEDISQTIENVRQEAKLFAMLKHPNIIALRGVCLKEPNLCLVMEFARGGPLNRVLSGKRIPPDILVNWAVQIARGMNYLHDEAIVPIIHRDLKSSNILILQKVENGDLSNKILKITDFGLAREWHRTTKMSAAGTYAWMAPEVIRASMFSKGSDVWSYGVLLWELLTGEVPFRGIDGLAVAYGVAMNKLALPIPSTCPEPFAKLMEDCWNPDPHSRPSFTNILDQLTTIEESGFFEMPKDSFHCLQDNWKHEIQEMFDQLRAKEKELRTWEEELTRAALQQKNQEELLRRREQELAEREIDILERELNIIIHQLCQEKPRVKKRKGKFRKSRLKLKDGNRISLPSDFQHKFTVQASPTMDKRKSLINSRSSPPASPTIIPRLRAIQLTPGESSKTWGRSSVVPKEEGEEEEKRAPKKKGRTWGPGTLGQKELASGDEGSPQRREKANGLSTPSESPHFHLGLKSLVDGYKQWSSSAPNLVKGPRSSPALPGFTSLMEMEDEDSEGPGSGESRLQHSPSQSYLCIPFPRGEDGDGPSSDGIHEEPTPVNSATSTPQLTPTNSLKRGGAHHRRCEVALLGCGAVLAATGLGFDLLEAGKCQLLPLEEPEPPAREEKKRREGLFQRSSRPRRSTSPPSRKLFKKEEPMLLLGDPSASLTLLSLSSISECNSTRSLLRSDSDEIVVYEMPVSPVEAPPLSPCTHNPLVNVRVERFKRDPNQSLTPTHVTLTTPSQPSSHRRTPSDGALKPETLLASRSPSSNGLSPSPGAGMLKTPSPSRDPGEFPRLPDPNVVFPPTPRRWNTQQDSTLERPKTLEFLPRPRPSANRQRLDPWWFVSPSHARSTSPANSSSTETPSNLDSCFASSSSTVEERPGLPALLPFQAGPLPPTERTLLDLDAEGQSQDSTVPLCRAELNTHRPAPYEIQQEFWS
Sequence of PAK2 (Q13177 whole entry, species assumed): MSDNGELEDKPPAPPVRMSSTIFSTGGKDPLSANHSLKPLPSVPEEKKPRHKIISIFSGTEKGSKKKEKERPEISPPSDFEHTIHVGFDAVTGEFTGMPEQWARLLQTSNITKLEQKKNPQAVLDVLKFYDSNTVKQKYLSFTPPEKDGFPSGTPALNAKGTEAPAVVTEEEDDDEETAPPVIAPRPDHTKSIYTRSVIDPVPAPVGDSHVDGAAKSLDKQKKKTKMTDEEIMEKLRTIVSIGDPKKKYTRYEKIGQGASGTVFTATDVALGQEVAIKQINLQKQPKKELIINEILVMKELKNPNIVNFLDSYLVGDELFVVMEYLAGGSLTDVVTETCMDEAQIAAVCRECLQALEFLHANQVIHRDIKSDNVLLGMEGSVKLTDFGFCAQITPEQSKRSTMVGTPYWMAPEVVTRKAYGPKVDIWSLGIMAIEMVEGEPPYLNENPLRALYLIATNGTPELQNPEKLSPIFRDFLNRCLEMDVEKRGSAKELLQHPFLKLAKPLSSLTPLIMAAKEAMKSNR
Sequence of MNK1 (Q9BUB5 whole entry, species assumed): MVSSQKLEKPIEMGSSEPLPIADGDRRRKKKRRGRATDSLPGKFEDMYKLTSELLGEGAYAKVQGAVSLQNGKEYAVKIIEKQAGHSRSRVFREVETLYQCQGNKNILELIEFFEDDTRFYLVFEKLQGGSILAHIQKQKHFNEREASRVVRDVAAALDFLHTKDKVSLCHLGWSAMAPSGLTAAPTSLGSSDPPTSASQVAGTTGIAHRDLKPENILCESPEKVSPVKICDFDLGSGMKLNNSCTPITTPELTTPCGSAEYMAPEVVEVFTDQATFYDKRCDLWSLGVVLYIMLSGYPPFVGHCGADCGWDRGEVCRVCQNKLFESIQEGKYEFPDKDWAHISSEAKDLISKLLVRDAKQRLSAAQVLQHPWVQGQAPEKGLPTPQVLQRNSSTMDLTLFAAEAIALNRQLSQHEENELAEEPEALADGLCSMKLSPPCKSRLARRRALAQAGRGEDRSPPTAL

SMILES | remaining activity at 100 µM [1, 9] | remaining activity at 100 µM [2, 9] | remaining activity at 100 µM [3, 9] | remaining activity at 100 µM [4, 9] | remaining activity at 100 µM [5, 9] | remaining activity at 100 µM [6, 9] | residual kinase activity, PAK2 [1, 9] | residual kinase activity, MAP4K3 [7, 9] | residual kinase activity, IKKb [2, 9] | residual kinase activity, MELK [3, 9] | residual kinase activity, MLK1 [4, 9] | residual kinase activity, MNK1 [5, 9] | residual kinase activity, ULK1 [8, 9] | residual kinase activity, EPH-A4 [6, 9] | also measured
CC(=O)Nc1nc2cc(O)ccc2s1 [Compound 01-66, N-(5-hydroxybenzo[d]thiazol-2-yl)acetamide] |  |  |  |  |  |  |  |  |  |  |  |  |  |  | remaining activity at 100 µM [1]: 93%; remaining activity at 100 µM [2]: 62%; remaining activity at 100 µM [3]: 17%; remaining activity at 100 µM [4]: 39%; remaining activity at 100 µM [5]: 17%; remaining activity at 100 µM [6]: 73%
CC(=O)Nc1nc2ccc(O)cc2s1 [Compound 01-71] | 102% | 63% | 24% | 11% | 28% | 77% |  |  |  |  |  |  |  |  | 
CC(=O)Nc1nc2ccc(C(F)(F)F)cc2s1 [Compound 01-90] | 103% | 75% | 49% | 39% | 65% | 45% |  |  |  |  |  |  |  |  | remaining activity at 100 µM [7, 9]: 65%; remaining activity at 100 µM [8, 9]: 87%
CC(=O)Nc1nc2ccc(C#N)cc2s1 [Compound 01-94] | 101% | 58% | 34% | 34% | 47% | 62% |  |  |  |  |  |  |  |  | remaining activity at 100 µM [7, 9]: 52%; remaining activity at 100 µM [8, 9]: 92%
CC(=O)Nc1cccc(NC(=O)c2nc3ccc(O)cc3s2)c1 [Compound 03-07, N-(3-acetamidophenyl)-6-hydroxybenzo[d]thiazole-2-carboxamide] |  |  |  |  |  |  |  |  |  |  |  |  |  |  | remaining activity at 100 µM [1, 10]: 90%; remaining activity at 100 µM [7, 10]: 63%; remaining activity at 100 µM [2, 10]: 88%; remaining activity at 100 µM [3, 10]: 12%; remaining activity at 100 µM [4, 10]: 26%; remaining activity at 100 µM [5, 10]: 40%; remaining activity at 100 µM [8, 10]: 70%; remaining activity at 100 µM [6, 10]: 95%
O=C(Nc1nc2cc(O)ccc2s1)c1ccncc1 [Compound 03-11] |  |  |  |  |  |  | 88 | 73 | 80 | 48 | 71 | 45 | 90 | 91 | 
O=C(Nc1nc2ccc(O)cc2s1)c1ccccn1 [Compound 03-12] |  |  |  |  |  |  | 104 | 54 | 84 | 31 | 31 | 67 | 96 | 78 | 
O=C(Nc1nc2cc(O)ccc2s1)c1ccccn1 [Compound 03-13] |  |  |  |  |  |  | 119 | 67 | 88 | 22 | 68 | 100 | 78 | 89 | 
COc1ccc2sc(NC(C)=O)nc2c1 [Compound 03-21] | 95% | 98% | 44% | 84% | 77% | 98% |  |  |  |  |  |  |  |  | remaining activity at 100 µM [7, 9]: 75%; remaining activity at 100 µM [8, 9]: 103%
CC(=O)Nc1nc2ccccc2s1 [Compound 03-32] |  |  |  |  |  |  | 90 | 90 | 75 | 83 | 72 | 89 | 102 | 111 | 
O=C(Nc1nc2cc(O)ccc2s1)c1cccnc1 [Compound 03-33] |  |  |  |  |  |  | 114 | 69 | 81 | 29 | 61 | 21 | 88 | 92 | 
O=C(Nc1nc2ccc(O)cc2s1)c1ccccc1 [Compound 03-60] |  |  |  |  |  |  | 94 | 56 | 87 | 18 | 5 | 18 | 47 | 87 | 
